Assay results reported in PMC8596125, “Self‐Stabilized Supramolecular Assemblies Constructed from PEGylated Dendritic Peptide Conjugate for Augmenting Tumor Retention and Therapy” (Advanced Science, 2021).

Test system: 4T1 cells
Test: Cytotoxicity, CCK-8 assay, 4T1
Type: cell-based, mouse
Method: The CCK-8 assay was used to examine the photodynamic therapeutic effect of SSAs on cell viability against three cell lines. 4×103 4T1 cells per well were seeded in a 96-well plate, and then incubated overnight. The cells were treated with different concentrations of Ppa and SSAs at an equivalent Ppa dose. After 24 h incubation, the medium was replaced with fresh one, and the wells were irradiated using a 660 nm laser with 1 J cm−2. After 24 h, the spent media was replaced and the cell viability was assessed using the CCK-8 reagent. The absorbance at […] of each well was recorded on a microplate reader. Untreated cells were served as a control. Results were presented as the average cell viability by following the manufacturer’s instruction. IC50 values were calculated by using nonlinear regression in software Graphpad Prism7. The cytotoxicity of SSAs and Ppa with or without laser against A549 cell line was also measured through the same procedure.
The cytotoxicity of SSAs and PDP without laser irradiation was also measured by […]

C=Cc1c(C)c2cc3nc(c4c5[nH]c(cc6nc(cc1[nH]2)C(C)=C6CC)c(C)c5C(=O)C4)[C@@H](CCC(=O)O)[C@@H]3C [Ppa, pyropheophorbide a] was tested, and the “Cytotoxicity with laser irradiation” value (24 h incubation, 660 nm laser, CCK-8, n = 3) was “notable cytotoxicity” and the “Concentration above which very cytotoxic without irradiation” value (no light, CCK-8) was “higher than 1 µg mL^−1”.
